Measurements from patent US4950686A, “Anti-mycoplasma agent” (Shionogi & Co., Ltd., priority 1986, dated 1990).
≈ marks a conversion by molar mass, not a printed value.

Experiments:
[1] = test system: Mycoplasma hyopneumoniae ST-11 (standard strain); test: Anti-mycoplasma activity in vitro (MIC, broth dilution), strain ST-11; type: cell-based; settings: Mesomycoplasma hyopneumoniae, Mh ST-11; read-out: MIC
How it was run: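 MIC by broth dilution in Hanks' solution with 0.5% lactoalbumin, yeast, equine serum and phenol red, pH 7.4-7.6. Inoculum: 3-4-day culture, turned yellow, diluted 10-fold in broth (subcultured first if yellowing took over 4 days).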

[2] = test system: Mycoplasma gallisepticum MR-1 (wild strain, tylosin-resistant); test: Mycoplasma gallisepticum air-sac infection method in chicken, strain MR-1;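 as to Index of Isolation: index = (P×1 + Q×2 + R×3)/S with range 0 to 6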; type: in vivo, Mycoplasma gallisepticum; SPF chicken (white leghorn); settings: 100 mg/kg × once oral, 10 mg/ml sol. b
Description: (2) Test of Effectiveness Mycoplasma gallisepticum air-sac infection method
MR-1 (wild strain, tylosin-resistant)
Inoculation: To the right air-sac of 9 days old SPF chicken (a white leghorn) which has abstained from water and feed one day before is inoculated 0.20-0.25 ml/chicken of fresh mycoplasma culture incubated for 24-48 hr and diluted with broth (usually 100 times). The concentration in Table 2 is shown in a unit of mg/ml.
Medium: Chick PPLO broth supplemented with 15% equine serum (Eiken Kagaku Co., Ltd.)
Administration: A compound of this invention dissolved or suspended in the following solution is orally and forcibly administered once by a cannula immediately after the infection.
Anatomization and Isolation of Microorganism: The chickens are anatomized 5 days after the infection, and the right and left air sacs are investigated whether they are attacked with a disease or not. The change caused by the disease is represented in four degrees; -: no change, +: slight, ++: medium and +++: serious. Microorganism is isolated from the right and left air-sacs and the trachea by using a sterilized applicator.
Judgement: Judgement is done through an index of an air-sac disease and an index of a microorganism-isolation.
Index of an air-sac-disease: First, indexes in the right and left air-sacs are separately calculated according to the following formula;
{degree of disease (0-3)×chickens}/anatomized chickens
and the index is calculated by the following formula;
(index of right air-sac)×1+(index of left air-sac)×2
Index of a microorganism isolation:
P: chickens from the right air-sac of which microorganism is isolated,
Q: chickens from the trachea of which microorganism is isolated,
R: chickens from the left air-sac of which microorganism is isolated, and
S: chickens investigated.

[3] = test system: Mycoplasma gallisepticum S6 (standard strain); test: Anti-mycoplasma activity in vitro (MIC, broth dilution), strain S6; type: cell-based; settings: Mg S6, 37° C., 7 days
How it was run: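 Chick PPLO broth with 20% equine serum; 2-fold serial agent dilutions inoculated with culture diluted to 10^6 CCU/ml (inoculum concentration before addition). Incubated 7 days at 37 °C; MIC by broth dilution.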

[4] = test system: Mycoplasma gallisepticum T-7-T (wild strain, tylosin-resistant); test: Anti-mycoplasma activity in vitro (MIC, broth dilution), strain T-7-T; type: cell-based; settings: Mg T-7-T, 37° C., 7 days
How it was run: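 Broth dilution MIC in chick PPLO broth with 20% equine serum, using 2-fold agent dilutions. Inoculum of 24-48 h culture diluted to 10^6 CCU/ml before use. Incubated 7 days at 37° C.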

O=c1cccccc1O [Tropolone, tropolone]
MIC [1]: 0.78 µg/mL (≈ 6.39 µM) | Change of air-sac, left: + (chickens) ([2]; inoculum 0.3 × 10^5): 0 | Change of air-sac, left: ++ (chickens) ([2]; inoculum 0.3 × 10^5): 0 | Change of air-sac, left: +++ (chickens) ([2]; inoculum 0.3 × 10^5): 0 | Change of air-sac, left: - (chickens) ([2]; inoculum 0.3 × 10^5): 6 | Change of air-sac, right: + (chickens) ([2]; inoculum 0.3 × 10^5): 0 | Change of air-sac, right: ++ (chickens) ([2]; inoculum 0.3 × 10^5): 0 | Change of air-sac, right: +++ (chickens) ([2]; inoculum 0.3 × 10^5): 0 | Change of air-sac, right: - (chickens) ([2]; inoculum 0.3 × 10^5): 6 | Isolation, L (left air-sac) ([2]; inoculum 0.3 × 10^5): 3 | Isolation, R (right air-sac) ([2]; inoculum 0.3 × 10^5): 4 | Isolation, T (trachea) ([2]; inoculum 0.3 × 10^5): 3 | Mycoplasma Isolated Chickens ([2]; inoculum 0.3 × 10^5): 6 | Index of Isolation ([2]; inoculum 0.3 × 10^5, range 0-6.0): 3.2 | Index of Disease ([2]; inoculum 0.3 × 10^5, range 0-9.0): 0 | MIC [3]: 0.2 µg/mL (≈ 1.64 µM) | MIC [4]: 0.39 µg/mL (≈ 3.19 µM)
